In test [1] the target is Protease (Human immunodeficiency virus 1) (UniProt Q9YQ12). Description: (§1) Inhibition of HIV1 protease.
Test [2] has as its target T1, Protease (Human immunodeficiency virus 1, UniProt Q9YQ12). As to the kind of experiment: Inhibition of HIV1 protease mutant.
Target sequence in this assay (Q9YQ12 1-99): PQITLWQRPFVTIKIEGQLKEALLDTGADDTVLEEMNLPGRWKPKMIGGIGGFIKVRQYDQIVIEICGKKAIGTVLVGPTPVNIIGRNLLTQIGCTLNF
For test [3], the target named is T1, Protease. Described as §1.
Target sequence in this assay (Q9YQ12 whole entry): as the sequence (Q9YQ12 1-99) above
Test [4] deals with Human immunodeficiency virus 1. Description: Antiviral activity against protease inhibitor-resistant HIV1 isolate. It counts as functional, organism-based.
The test system of test [5] is Human immunodeficiency virus 1. As to the kind of experiment: Antiviral activity against HIV1 in CEM cells. It counts as functional. To be noted: Human immunodeficiency virus 1, CCRF-CEM; for IC50: read-out: ID50 (the source's name).
Test [6] concerns Human immunodeficiency virus 1. Description: Antiviral activity against HIV1 in MT4 cells. The format is functional.

These results are taken from ChEMBL document CHEMBL1141313 (Bioorg Med Chem, 2007).

Each structure is given as a SMILES string.

As usually defined, the Ki is the equilibrium dissociation constant of an inhibitor or competing ligand from its target. Higher therefore signals weaker binding. By EC50 is commonly meant the concentration that produces a half-maximal response. A low value points to a more potent agent.

Protease (Human immunodeficiency virus 1), sequence (Q9YQ12 as listed by the source): as the sequence (Q9YQ12 1-99) above

On to `COC(=O)N[C@H](C(=O)NCCCC[C@@H](COP(=O)(O)O)N(CC(C)C)S(=O)(=O)c1ccc(N)cc1)C(c1ccccc1)c1ccccc1`, for which the Activity in test [1] was under 20 nM.

In the case of `C=CCNC(=O)[C@H]1NC(C(=O)[C@@H](O)[C@H](Cc2ccccc2)NC(=O)c2cccc(O)c2)SC1(C)C` (stereo partly drawn), the Ki on Protease [2] and at Protease [3] was 0.1 nM each time. Besides, in test [4], the response was half-maximal at 34 nM (EC50). `COc1ccc(S(=O)(=O)N(CC(C)C)C[C@@H](O)[C@H](Cc2ccccc2)NC(=O)O[C@H]2CO[C@H]3OCC[C@H]32)cc1`: in test [5], the IC50 was found to be 1.2 nM. With `COC(=O)N[C@H](C(=O)NCCCC[C@@H](CO)N(CC(C)C)S(=O)(=O)c1ccc(N)cc1)C(c1ccccc1)c1ccccc1`, in test [1], the Activity was under 20 nM. Consider `CC(C)(C)NC(=O)[C@@H]1C[C@@H]2CCCC[C@@H]2CN1C[C@@H](O)[C@H](Cc1ccccc1)NC(=O)O[C@H]1CO[C@H]2OCC[C@H]21`, for which the IC95 in test [5] (read-out: CIC95) is 46 nM. On Protease [3], this compound displayed an IC50 of 1.8 nM. Consider `CC(C)CN(C[C@@H](O)[C@H](Cc1ccccc1)NC(=O)O[C@@H]1C[C@@H]2CCO[C@@H]2C1)S(=O)(=O)c1ccc(CO)cc1`, for which, on Protease [3], the IC50 is 1.8 nM and the Ki was 0.0045 nM. In test [6], `CC(C)CN(C[C@@H](O)[C@H](Cc1ccccc1)NC(=O)O[C@H]1CO[C@H]2OCC[C@H]21)S(=O)(=O)c1ccc(N)cc1` yielded an ID90 of 10 nM and a TD50 of over 100 µM. In addition, in test [5], the IC50 is 4.7 nM.
